Results published in patent US8617827B2, “Photoactivable fluorescent dyes for optical microscopy and imaging techniques” (Max-Planck-Gesellschaft zur Foerderung der Wissenschaften …, priority 2009, dated 2013).

How the values were obtained:
[1] = UV absorption and fluorescence spectra in solution; type: physicochemical; settings: for absorption maximum (abs.) / emission maximum (em.): in MeOH, approximate, comparison
[2] = Preparative photolysis in methanol, light >320 nm; type: physicochemical; settings: MeOH, under N2, ambient temperature
Procedure: Diazoketone 10 was subjected to photolysis in methanol in order to study the product distribution. Light with wavelengths >320 nm was used. The result of this experiment is presented in Scheme 6.
NMR spectra were recorded with Varian MERCURY 300 spectrometer at 300 (^1H) and 75.5 MHz (^13C and APT). All spectra are referenced to tetramethylsilane as an internal standard (δ=0 ppm) using the signals of the residual protons of CHCl3 (7.26 ppm) in CDCl3, CHD2OD (3.31 ppm) in CD3OD, HOD (4.79 ppm) in D2O or [D5] DMSO (2.50 ppm) in [D6] DMSO. Multiplicities of signals are described as follows: s=singlet, br. s=broad singlet, d=doublet, br. d=broad doublet, t=triplet, q=quartet, m=multiplet. Coupling constants (J) are given in Hz. Multiplicities in the ^13C NMR spectra were determined by APT (Attached Proton Test) measurements. […] Analytical TLC was performed on MERCK ready-to-use plates with silica gel 60 (F254). […]
Photolysis of diazoketone 10: A solution of compound 10 (70 mg, 0.15 mmol) in MeOH (150 mL) was placed into a reactor for photolysis, and nitrogen was bubbled for 30 min through the solution at room temperature with stirring. Then the lamp was turned on, and the reaction mixture was irradiated at ambient temperature with stirring under N2 for 40 min, until the starting compound could not be detected on TLC. […]

absorption maximum (abs.) [1]	emission maximum (em.) [1]	UV λmax ([1]; MeCN) [nm]	ε at λmax ([1]; MeCN)	irradiation time until starting compound could not be detected [2] [min]	Compound
about 560 nm	ca. 580 nm				CCN(CC)c1ccc2c(-c3ccccc3C(=O)O)c3ccc(=[N+](CC)CC)cc-3oc2c1.[Cl-] [rhodamine B, Rhodamine B]
ca. 540 nm	about 560 nm				5/6-carboxy rhodamine Q
		241	59700	40	CCN(CC)c1ccc2c(c1)Oc1cc(N(CC)CC)ccc1C21C(=[N+]=[N-])C(=O)c2ccccc21 [Compound 10]

Compound	absorption maximum (abs.) [1]	emission maximum (em.) [1]	UV λmax ([1]; MeCN) [nm]	ε at λmax ([1]; MeCN)	irradiation time until starting compound could not be detected [2] [min]
CN(C)c1ccc2c(-c3ccccc3C(=O)[O-])c3ccc(N(C)C)cc3[o+]c2c1 [TMR, N,N,N′,N′-Tetramethylrhodamine]	about 560 nm	ca. 580 nm			
